# Laboratory results from patent US5691373A, “Nonpeptide endothelin antagonists I” (Warner-Lambert Company, priority 1995, dated 1997).
# Read-outs that look alike come from different tables or passages of the source. Where a SMILES comes first, the peptide text is derived from it. [ ]: non-standard residue; d: D form.
# Columns and labels:
# ETA [1] = details: cited from earlier work
# cerebral vasospasm [2] = details: cited from earlier work; for early cerebral vasospasm following SAH: rat
# cerebral vasospasm [3] = details: cited from earlier work
# [4] = test system: ET-1 induced bronchoconstriction and tracheal smooth muscle contraction; details: allergic sheep; cited from earlier work
# endotoxic shock = details: cited from earlier work
# cerebral vasospasm [5] = details: in vivo; cited from earlier work
# [6] = test system: ET-1 Induced Pressor Response; test: inhibition of ET-1 induced pressor response in anesthetized ganglionic blocked rats; type: in vivo, rat (Sprague Dawley); details: IV, ET-1 1 nm/kg
# Method: Antagonists were administered IV bolus (3, 10, 30, 100 μmol/kg, IV bolus) in separate groups of rats (5 minutes before ET-1 challenge [see Haleen, et al., J. Cardiovasc, Pharm., 22(Suppl. 8):598-5102 (1993)]). Duration of action of the antagonist was determined in conscious, chronically prepared normotensive rats. Rats were challenged with ET-1 (1.0 nmol/kg, IV bolus) on 5 consecutive days; Day =b 1 =l control and on Days 2-5 at 5, 20, 60, and 120 minutes following treatment with the antagonist. Separate groups of rats were used for each antagonist treatment.
# ETB [7] = molecular target: T1, ETB (Rattus norvegicus, UniProt P21451)
# T1 sequence (P21451 27-442): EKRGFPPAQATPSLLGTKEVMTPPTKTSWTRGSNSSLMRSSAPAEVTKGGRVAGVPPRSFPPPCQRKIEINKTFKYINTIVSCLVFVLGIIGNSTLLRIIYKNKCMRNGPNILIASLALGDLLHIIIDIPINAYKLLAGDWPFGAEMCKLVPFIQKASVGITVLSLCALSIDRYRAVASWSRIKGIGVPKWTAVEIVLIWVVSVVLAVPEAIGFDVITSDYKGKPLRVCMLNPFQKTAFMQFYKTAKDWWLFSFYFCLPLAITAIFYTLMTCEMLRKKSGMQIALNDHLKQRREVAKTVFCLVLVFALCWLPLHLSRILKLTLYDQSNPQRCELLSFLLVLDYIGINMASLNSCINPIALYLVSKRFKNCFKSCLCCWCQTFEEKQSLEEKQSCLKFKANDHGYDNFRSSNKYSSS
# ETA [8] = molecular target: T2, ETA (Oryctolagus cuniculus, UniProt A5A8K3)
# T2 sequence (A5A8K3 21-427): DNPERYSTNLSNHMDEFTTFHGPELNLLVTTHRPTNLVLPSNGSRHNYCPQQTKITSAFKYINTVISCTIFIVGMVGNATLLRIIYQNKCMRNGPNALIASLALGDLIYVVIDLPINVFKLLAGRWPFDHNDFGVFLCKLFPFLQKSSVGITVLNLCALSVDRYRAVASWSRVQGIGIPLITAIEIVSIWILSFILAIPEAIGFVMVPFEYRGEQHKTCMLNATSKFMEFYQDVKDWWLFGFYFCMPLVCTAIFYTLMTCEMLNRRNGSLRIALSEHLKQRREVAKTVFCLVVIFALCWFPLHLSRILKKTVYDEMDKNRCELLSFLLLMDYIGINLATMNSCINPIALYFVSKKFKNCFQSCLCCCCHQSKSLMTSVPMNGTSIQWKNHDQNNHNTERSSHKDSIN
# human ETB receptor = molecular target: T3, human ETB receptor (Homo sapiens, UniProt P24530); test: ERBA-B: [125I]-ET-1 binding, recombinant human ETB receptor expressed in CHO-K1 cells; details: human cloned ETB receptor, read-out: ERBA-B IC50, human cloned receptor data
# T3 construct: expressed in transfected cells; host or cells: CHO-K1 cells, pRc-CMW (so in the source) expression vector, electroporation; membranes used
# T3 sequence (P24530 27-442): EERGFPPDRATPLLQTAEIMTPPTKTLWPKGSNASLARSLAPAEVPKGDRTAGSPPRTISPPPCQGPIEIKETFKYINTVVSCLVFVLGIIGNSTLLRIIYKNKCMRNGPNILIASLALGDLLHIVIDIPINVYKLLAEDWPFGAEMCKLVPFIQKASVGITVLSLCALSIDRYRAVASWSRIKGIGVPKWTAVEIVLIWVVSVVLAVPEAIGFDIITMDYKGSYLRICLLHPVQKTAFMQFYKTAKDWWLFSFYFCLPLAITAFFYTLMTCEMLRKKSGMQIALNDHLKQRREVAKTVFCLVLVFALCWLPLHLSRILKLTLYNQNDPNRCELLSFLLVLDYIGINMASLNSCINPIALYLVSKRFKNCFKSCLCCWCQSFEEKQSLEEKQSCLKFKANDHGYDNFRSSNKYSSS
# ETA [9] = molecular target: T2, ETA; test: VERA-A: antagonism of ET-1 stimulated vasoconstriction in the rabbit femoral artery (ETA); type: cell-based; details: ET-1, rabbit femoral artery
# Method in brief: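 Endothelium-denuded 4-mm rings of femoral and pulmonary artery from male New Zealand rabbits. Resting tension 3.0 g for femoral and 4.0 g for pulmonary rings, with 90 min equilibration.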
# acute renal ischemia = details: rats; cited from earlier work
# ETB [10] = details: isolated, endothelium-intact porcine pulmonary arteries; cited from earlier work
compound,measurement,setting,value
"Cc1noc(NS(=O)(=O)c2cccc3c(N(C)C)cccc23)c1C [5-(Dimethylemino)-N-(3,4-dimethyl-5-isoxazolyl)-1-naphthalenesulfonamide]",oral antihypertensive effect,ETA [1],demonstrated an oral antihypertensive effect
CC(C)C[C@@H]1NC(=O)[C@@H](C(C)C)NC(=O)[C@@H]2CCCN2C(=O)[C@@H](CC(=O)O)NC(=O)[C@@H](Cc2c[nH]c3ccccc23)NC1=O [BQ-123] (cyclo(L[dW][dD]P[dV])),early cerebral vasospasm following SAH,cerebral vasospasm [2],prevents early cerebral vasospasm following SAH
same,early cerebral vasospasm following SAH,cerebral vasospasm [3]; rabbit,prevents early cerebral vasospasm following SAH
same,ET-1 induced bronchoconstriction and tracheal smooth muscle contraction,[4],block ET-1 induced bronchoconstriction and tracheal smooth muscle contraction
same,survival rate,endotoxic shock,significantly increased the survival rate
same,early cerebral vasospasm following subarachnoid hemorrhage,cerebral vasospasm [5],prevent early cerebral vasospasm following subarachnoid hemorrhage
"COc1ccc(C(=O)/C(Cc2ccccc2)=C(\C(=O)O)c2ccc3c(c2)OCO3)cc1 [Example 171, 2-Butenoic acid, 2-(1,3-benzodioxol-5-yl)-4-(4-methoxyphenyl)-4-oxo-3-(phenylmethyl)-, (Z)-, ion(1-) compd. with 2-hydroxy-N,N,N-triethanaminium (1:1)]",% Inhibition on ET-1 Induced Pressor Response,[6]; 3 μmol/kg,21%
same,% Inhibition on ET-1 Induced Pressor Response,[6]; 10 μmol/kg,26%
same,% Inhibition on ET-1 Induced Pressor Response,[6]; 30 μmol/kg,35%
same,% Inhibition on ET-1 Induced Pressor Response,[6]; 100 μmol/kg,57%
same,IC50,ETB [7],2200 nM
same,IC50,"ETA [8]; ERBA-A IC50, [125I]-ET-1, rabbit renal artery vascular smooth muscle cells",39 nM
"CCCOc1cccc(C/C(C(=O)c2ccc(OC)cc2)=C(/C(=O)O)c2ccc3c(c2)OCO3)c1 [Example 253, 2-Butenoic acid, 2-(1,3-benzodioxol-5-yl)-4-(4-methoxyphenyl)-4-oxo-3-[(3-propoxyphenyl)methyl]-, (Z)-, ion(1-) compound with 2-hydroxy-N,N,N-trimethylethanaminium (1:1)]",IC50,human ETB receptor,900 nM
same,VERA-A pA2,ETA [9],7.0
same,% Inhibition on ET-1 Induced Pressor Response,[6]; 3 μmol/kg,22%
same,% Inhibition on ET-1 Induced Pressor Response,[6]; 10 μmol/kg,42%
same,% Inhibition on ET-1 Induced Pressor Response,[6]; 30 μmol/kg,53%
same,IC50,"ETA [8]; read-out: ERBA-A IC50, [125I]-ET-1, rabbit renal artery vascular smooth muscle cells",17 nM
COc1cccc(Oc2c(NS(=O)(=O)c3ccc(C(C)(C)C)cc3)ncnc2OCCO)c1 [Ro 46-2005],systemic arterial blood pressure,cerebral vasospasm [2]; rat with SAH,no significant effect on systemic arterial blood pressure
same,early cerebral vasospasm following SAH,cerebral vasospasm [2],prevent early cerebral vasospasm following SAH
same,efficacy in subarachnoid hemorrhage,cerebral vasospasm [2]; rats,effective in models of acute renal ischemia and subarachnoid hemorrhage
same,efficacy in acute renal ischemia,acute renal ischemia,effective in models of acute renal ischemia
"COc1ccccc1Oc1c(NS(=O)(=O)c2ccc(C(C)(C)C)cc2)nc(-c2ncccn2)nc1OCCO [Ro 47-0203, Bosentan]",reduction of basilar artery cross-sectional area compared to sham,cerebral vasospasm [3]; rabbits with SAH,36±7%
"ET[6-21, 1,3,11,15-Ala]",vasorelaxation,ETB [10],caused vasorelaxation
"ET[8-21,11,15-Ala]",vasorelaxation,ETB [10],caused vasorelaxation
"N-Acetyl-ET[10-21,11,15-Ala]",vasorelaxation,ETB [10],caused vasorelaxation
